Key:
[1] = system: p53 and p21 in HCT116 colon cancer cell lines; assay: Western blot of p53 and p21 in isogenic HCT116 cell lines (FIG. 2A); type: cell-based, Human; settings: isogenic HCT116: wild-type, USP7 null
Description: (§1) In 24-well plates, 0.10-0.15×10^6 (adherent) or 0.5×10^6 (suspension) cells were treated with 15 μM or 2.5 μM compounds, respectively, for 24 h in low serum prior to lysis for Western Blot analysis.

[2] = system: MDM2 in MCF7 breast cancer cells; assay: MDM2 turnover in MCF7 cells with cycloheximide (FIG. 3A); type: cell-based; settings: 15 μM, in the presence of cycloheximide (CHX)
Description: In 24-well plates, 0.15×10^6 MCF-7 cells were treated for a total of 8 h with DMSO or compounds (15 μM). During that 8 h, cycloheximide (CHX) was added for the indicated times prior to harvest.

[3] = system: p53, p21, MDM2 and E6AP in RKO, RKO-E6, Vibo and SiHA cell lines; assay: Western blot in RKO, RKO-E6, Vibo and SiHA cells (FIG. 14A); type: cell-based
Description: as §1

[4] = biological target: T1, USP5 (Homo sapiens, UniProt P45974); assay: Ub-Rho110 DUB assay, Table 2, USP5
T1 sequence (P45974 1-858): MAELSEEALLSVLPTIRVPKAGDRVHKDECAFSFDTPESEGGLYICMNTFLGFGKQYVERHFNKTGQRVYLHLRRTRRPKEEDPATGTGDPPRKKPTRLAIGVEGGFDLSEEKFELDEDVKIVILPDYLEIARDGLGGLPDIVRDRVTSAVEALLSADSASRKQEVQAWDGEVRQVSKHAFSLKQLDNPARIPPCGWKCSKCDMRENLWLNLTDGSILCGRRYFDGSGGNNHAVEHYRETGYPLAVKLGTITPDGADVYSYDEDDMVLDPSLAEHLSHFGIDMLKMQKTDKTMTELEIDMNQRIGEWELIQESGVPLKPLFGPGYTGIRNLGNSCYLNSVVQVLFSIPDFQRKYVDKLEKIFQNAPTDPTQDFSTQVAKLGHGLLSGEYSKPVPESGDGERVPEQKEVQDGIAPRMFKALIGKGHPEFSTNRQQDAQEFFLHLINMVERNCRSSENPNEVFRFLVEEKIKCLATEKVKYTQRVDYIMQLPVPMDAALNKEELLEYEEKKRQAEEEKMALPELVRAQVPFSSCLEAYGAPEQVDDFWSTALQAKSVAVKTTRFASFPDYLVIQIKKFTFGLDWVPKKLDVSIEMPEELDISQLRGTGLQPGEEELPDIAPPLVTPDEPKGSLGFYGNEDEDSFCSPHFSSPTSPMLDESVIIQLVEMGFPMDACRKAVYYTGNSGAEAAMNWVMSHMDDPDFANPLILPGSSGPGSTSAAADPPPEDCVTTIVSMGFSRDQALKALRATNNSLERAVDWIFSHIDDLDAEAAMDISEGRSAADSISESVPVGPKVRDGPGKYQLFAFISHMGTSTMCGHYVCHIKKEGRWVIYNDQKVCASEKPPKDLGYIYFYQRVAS

[5] = system: colon cancer cell lines RKO and RKO-E6, and cervical cancer cell lines Vibo and SiHA; assay: Incucyte cell proliferation in RKO, RKO-E6, Vibo and SiHA cells (FIG. 15); type: cell-based
Description: 2,500-5,000 cells were seeded in 1-well of a 96-well plate (Corning; 3904). The following day, the media was changed from normal (10%) to low serum (0.5%) containing vehicle (DMSO) or compounds. 16-24 h later FBS was added to each well to bring serum levels back to normal (10%). Cells were then allowed to grow for 2 days. All treatments were done in triplicate. The day after cells were seeded, the media was changed to low serum media containing 2 μM CellEvent Caspase 3/7 reagent (Life Technologies; C10423) and compounds. The plates were placed in an IncuCyte (Essen Bioscience, Inc.) live cell imager and scanning was started 15-20 mins after. IncuCyte™ ZOOM facilitates live-cell monitoring via customized imaging protocols. Images were taken every 2 h for at least 3 days, using a 10× objective. Phase contrast was used to measure cell confluency/density while green fluorescence was used to measure caspase activity. The images were analyzed using IncuCyte software (Basic Analysis parameters) and a ratio of caspase activity to cell density was determined.

[6] = biological target: T2, USP47 (Homo sapiens, UniProt Q96K76); assay: Ub-Rho110 DUB assay, Table 2, USP47; type: biochemical
T2 sequence (Q96K76 1-1375): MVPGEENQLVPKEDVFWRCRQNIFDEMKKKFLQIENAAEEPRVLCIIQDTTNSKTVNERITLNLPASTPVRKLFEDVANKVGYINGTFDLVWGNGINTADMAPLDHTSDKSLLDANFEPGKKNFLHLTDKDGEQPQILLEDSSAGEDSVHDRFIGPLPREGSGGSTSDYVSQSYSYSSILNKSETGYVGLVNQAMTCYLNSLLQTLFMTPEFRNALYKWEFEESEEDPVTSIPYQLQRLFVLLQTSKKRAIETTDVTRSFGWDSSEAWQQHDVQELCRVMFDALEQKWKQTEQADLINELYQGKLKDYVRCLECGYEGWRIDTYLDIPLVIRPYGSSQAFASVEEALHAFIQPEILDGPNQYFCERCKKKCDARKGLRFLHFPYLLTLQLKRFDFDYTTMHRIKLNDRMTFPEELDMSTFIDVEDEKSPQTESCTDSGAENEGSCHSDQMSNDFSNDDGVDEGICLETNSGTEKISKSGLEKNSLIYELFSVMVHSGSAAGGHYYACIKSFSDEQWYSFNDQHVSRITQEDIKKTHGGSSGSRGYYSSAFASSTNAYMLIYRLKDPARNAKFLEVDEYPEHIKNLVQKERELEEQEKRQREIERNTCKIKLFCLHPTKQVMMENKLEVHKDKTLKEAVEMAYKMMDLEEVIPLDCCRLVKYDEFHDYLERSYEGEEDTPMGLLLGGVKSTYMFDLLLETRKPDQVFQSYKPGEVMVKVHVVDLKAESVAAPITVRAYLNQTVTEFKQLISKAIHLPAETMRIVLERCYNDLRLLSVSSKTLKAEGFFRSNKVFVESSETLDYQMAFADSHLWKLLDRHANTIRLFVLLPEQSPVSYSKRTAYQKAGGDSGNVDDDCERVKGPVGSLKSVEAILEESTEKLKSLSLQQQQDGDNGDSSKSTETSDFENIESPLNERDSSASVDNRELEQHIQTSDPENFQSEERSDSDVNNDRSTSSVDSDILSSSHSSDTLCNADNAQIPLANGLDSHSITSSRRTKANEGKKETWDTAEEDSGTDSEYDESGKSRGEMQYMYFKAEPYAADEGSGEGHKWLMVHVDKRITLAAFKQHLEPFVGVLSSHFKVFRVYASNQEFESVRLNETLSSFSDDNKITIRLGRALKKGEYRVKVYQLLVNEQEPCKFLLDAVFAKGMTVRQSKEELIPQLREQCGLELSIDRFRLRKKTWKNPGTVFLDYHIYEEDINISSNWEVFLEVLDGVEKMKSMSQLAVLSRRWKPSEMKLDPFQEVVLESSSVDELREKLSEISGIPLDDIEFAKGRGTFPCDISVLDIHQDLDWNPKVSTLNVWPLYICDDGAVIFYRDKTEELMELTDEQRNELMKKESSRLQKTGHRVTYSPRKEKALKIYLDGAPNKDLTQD

Q: Which results are given for `CCc1c(-c2ccc3cn(C)nc3c2)cnc(N)c1-c1ccc(O)cc1` [Compound 89, 4-[2-amino-4-ethyl-5-(2-methylindazol-6-yl)-3-pyridyl]phenol]?
A: stabilization of p53 and p21 (western blot) [1]: not; destabilizing effect on MDM2 (western blot) [2]: less active; effect on p53, p21, MDM2 and E6AP (western blot) [3]: stabilize p53, p21, and destabilize MDM2 and E6AP; IC50 [4]: > 200 µM; cell viability (Incucyte cell proliferation) [5]: not; IC50 [6]: > 200 µM

— patent US9573899B2, “USP7 inhibitor compounds and methods of use” (Genentech, Inc., priority 2015, dated 2017)
